The test system of one series is ACE. The settings on record: read-out: IC50 ACE inhibition in vitro, cited from earlier work. From the text:
It is well-recognized that soybean proteins contain many bioactive peptides exerting multiple health benefits, that is, hypocholesterolemic, antidiabetic, antitumor, and hypotensive activity. […] Moreover, after the hydrolysis of soybean proteins with pepsin, five peptides have been identified showing in vitro and in vivo hypotensive activity. […] Their bl ...

The target in series [1] is T1, ACE in human intestinal Caco-2 cells (Homo sapiens, UniProt P12821).
T1 construct: endogenous in cells; host or cells: Caco-2 cells (INSERM, Paris)
Kind of series: ACE activity cell-based assay (in situ) in Caco-2 cells. The conditions noted are these: nondifferentiated Caco-2 cells 5 × 10^4/well, 0.1–250 μM, 24 h, 37 °C; ACE activity in cell lysates with fluorescent substrate; mean ± s.d. of three independent experiments in triplicate. How it is done:
(§1) Soy1 and LPYP were tested on Caco-2 and HK2 cells (5 × 10^4/well in black 96-well plates) in 0.1–250.0 μM concentration ranges or vehicle in growth medium for 24 h at 37 °C. For a 2D cell culture on RADA16-Soy1 and RADA-LPYP hydrogels, Caco-2 cells were seeded on the surface of the abovementioned hydrogels at a density of 5 × 10^4/well. On the next day, the ACE inhibitory activity was measured using an ACE1 Activity Assay Kit (BioVision, Milpitas Blvd., Milpitas, CA, USA) following the manufacturer’s protocol. See the “Supporting Information” for further details on Acer activity cell-based assay.
(§2) In particular, Caco-2 and HK-2 cells (5 × 10^4/well) were treated with Soy1 and LPYP (0.1–250 μM) overnight. The following day, cells were lysated and the ACE activity was measured directly in the cell lysates using a fluorescent ACE substrate; in this assay, the fluorescent signal is proportional to the enzyme activity.
(§3) Figure 2 In situ evaluation of the ACE activity. […] Data represent the mean ± s.d. of three independent experiments performed in triplicate. […]
absence of carryover effects. […]
ACE activity cell-based assay. […] The next day, The ACE inhibitory activity was measured using the ACE1 Activity Assay Kit (Biovision, Milpitas Blvd., Milpitias, CA, USA) following the manufacture’s protocol. […]

Series [2] deals with T2, ACE in human kidney HK-2 cells (Homo sapiens, UniProt P12821).
T2 construct: endogenous in cells; host or cells: HK-2 cells (ATCC)
Kind of series: ACE activity cell-based assay (in situ) in HK-2 cells. The settings on record: for IC50: renal HK-2 cells 5 × 10^4/well, 0.1–250 μM, 24 h, 37 °C, ACE activity in cell lysates with fluorescent substrate, mean ± s.d. of three independent experiments in triplicate. How it is done:
as §1, §2, §3
absence of carryover effects. The peptides were identified by comparing their retention times, MS profiles, and MS/MS fragmentation spectra with those of authentic standards.
ACE activity cell-based assay. […] The next day, The ACE inhibitory activity was measured using the ACE1 Activity Assay Kit (Biovision, Milpitas Blvd., Milpitias, CA, USA) following the manufacture’s protocol.
Briefly, cells were scraped in 30.0 μL of ice-cold ACE lysis buffer and transferred in an ice-cold microcentrifuge tube. […] Total proteins were quantified by Bradford method, and 2.0 μg of proteins (the equivalent of 2 μL) were added to 18.0 μL of ACE lysis buffer in each well in a black 96-well plates with clear bottoms. […] Then, 20.0 μL of 4% of ACE substrate (in assay buffer) was added in each well except the background one and the fluorescence (Ex/Em 330/430 nm) was measured in a kinetic mode for 10 min at 37 °C using […]

A short description of series [3]: In vitro gastrointestinal digestion with pepsin and pancreatin. The class given is in vitro ADME. The conditions noted are these: peptide 100 μM; pepsin 1:100 enzyme-to-substrate, pH 2.0, 37 °C, 90 min, then pancreatin 1:50, pH 7.2, 37 °C, 150 min; HPLC-Chip ion trap MS; mean ± s.d. of three independent experiments in triplicate; read-out: degraded after codigestion with pepsin and pancreatin vs undigested peptide. How it is done: Pepsin solution (4 mg/mL in NaCl) was added to Soy1 and LPYP (100 μM) at a 1:100 enzyme-to-substrate ratio (pH 2.0). The digestion was conducted at 37 °C for 90 min under continuous stirring, and then, the pH was adjusted to 7.2 with 1 M NaOH in order to inactivate the enzyme. Then, pancreatin (4 mg/mL in H2O) was added at a 1:50 enzyme-to-substrate ratio. After digestion, at 37 °C for 150 min, the enzyme was inactivated by heating at 95 °C for 10 min. Further details regarding the analysis are available in the “Supporting Information”.
Their metabolic propensity to be degraded by peptidases, which are physiologically active along the entire gastrointestinal tract, might dramatically influence the bioactivity of food peptides. The literature provides many studies dealing with the assessment of food bioactive peptide stability to the simulated gastric digestion.[22],[23] In order to in-depth characterize the multifunctional behavior of Soy1 and LPYP, their stability toward the in vitro gastric digestion was assessed using pepsin and pancreatin.
Figure 1 In vitro gastrointestinal digestion. […]
In vitro digestion of Soy1 and LPYP. […] Soy1 and LPYP samples undigested and after digestion were analyzed on a SL IT mass spectrometer interfaced with a HPLC- Chip Cube source (Agilent Technologies, Palo Alto, CA, USA). […] A blank was analyzed between samples to ensure

In series [4] the test system is differentiated Caco-2 cells. The settings on record: 2 h of incubation in the apical side of monolayers; cited from earlier work. An excerpt:
Mature enterocytes represent the first physiological barrier that bioactive food peptides encounter after ingestion; therefore, their absorption is a dynamic proces ...

Where [5] appears, read: soybean peptides reported in the literature.
The mark [6] stands for this setting: peptides from pepsin hydrolysis of soybean proteins.

Read-outs that look alike come from different tables or passages of the source. Ends that are not written are not given here. Peptide text beside a SMILES is read from it.

T2 sequence (P12821 30-1306): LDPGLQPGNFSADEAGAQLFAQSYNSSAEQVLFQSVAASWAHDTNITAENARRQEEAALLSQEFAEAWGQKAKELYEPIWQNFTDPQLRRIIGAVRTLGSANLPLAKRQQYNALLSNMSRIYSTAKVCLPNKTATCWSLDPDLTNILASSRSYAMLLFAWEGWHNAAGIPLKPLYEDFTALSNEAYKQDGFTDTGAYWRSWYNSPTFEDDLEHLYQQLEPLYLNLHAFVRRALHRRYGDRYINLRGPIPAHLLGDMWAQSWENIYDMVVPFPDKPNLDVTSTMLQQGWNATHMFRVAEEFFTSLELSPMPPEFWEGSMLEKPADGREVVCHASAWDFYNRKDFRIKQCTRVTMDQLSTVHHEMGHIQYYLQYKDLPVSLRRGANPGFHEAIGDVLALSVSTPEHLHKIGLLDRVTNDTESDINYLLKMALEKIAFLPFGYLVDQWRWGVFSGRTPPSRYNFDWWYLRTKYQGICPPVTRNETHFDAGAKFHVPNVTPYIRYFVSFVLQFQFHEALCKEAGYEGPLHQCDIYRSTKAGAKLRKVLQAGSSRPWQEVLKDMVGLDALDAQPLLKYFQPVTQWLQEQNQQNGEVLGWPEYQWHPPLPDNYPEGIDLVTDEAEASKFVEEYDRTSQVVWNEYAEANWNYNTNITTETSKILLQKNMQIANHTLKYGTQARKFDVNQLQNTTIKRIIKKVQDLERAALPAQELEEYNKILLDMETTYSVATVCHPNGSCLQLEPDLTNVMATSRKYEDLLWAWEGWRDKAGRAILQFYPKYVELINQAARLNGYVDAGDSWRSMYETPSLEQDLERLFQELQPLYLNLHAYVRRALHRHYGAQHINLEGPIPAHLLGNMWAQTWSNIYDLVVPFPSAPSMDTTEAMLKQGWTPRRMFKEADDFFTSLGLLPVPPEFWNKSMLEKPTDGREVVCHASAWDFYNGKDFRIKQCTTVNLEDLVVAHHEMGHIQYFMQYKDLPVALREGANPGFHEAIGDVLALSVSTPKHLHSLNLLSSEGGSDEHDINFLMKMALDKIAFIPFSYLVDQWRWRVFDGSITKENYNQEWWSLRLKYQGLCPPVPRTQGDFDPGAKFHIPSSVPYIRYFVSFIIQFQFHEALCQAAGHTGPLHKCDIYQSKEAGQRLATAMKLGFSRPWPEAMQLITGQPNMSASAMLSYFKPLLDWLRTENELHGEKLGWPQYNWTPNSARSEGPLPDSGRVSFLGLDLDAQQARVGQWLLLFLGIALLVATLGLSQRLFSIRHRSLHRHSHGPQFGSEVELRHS
T1 sequence (P12821 30-1306): as above

As to “SPYP [peptide from soybean glycinin hydrolysed by Monascus purpureus acid proteinase]”, the IC50 in the series on ACE (setting [5]) was 850 µM. For LAIPVNKP, the IC50 with ACE (setting [5]) was 70 µM.

Turning to LPHF, the IC50 in the series on ACE (setting [5]) is 670 µM. Regarding “VMDKPQG [peptide from pepsin hydrolysis of soybean proteins]”, the IC50 in the series on ACE (setting [6]) is 39 µM. On to “YLAGNQ [peptide from pepsin hydrolysis of soybean proteins]”, for which the IC50 with ACE (setting [6]) was 14 µM. As for “IYLL [peptide from pepsin hydrolysis of soybean proteins]”, the IC50 in the series with ACE (setting [6]) was 42 µM. With `CC(C)C[C@H](N)C(=O)N1CCC[C@H]1C(=O)N[C@@H](Cc1ccc(O)cc1)C(=O)N1CCC[C@H]1C(=O)O` [LPYP] (H-LPYP-OH), the IC50 in series [1] was 5 ± 0.28 µM; in series [2], 6.8 ± 0.2 µM. In series [3], the metabolised at 4 h, 100 μM was determined as 28.5 ± 1.4%.

With IAVPTGVA [Soy1, IAVPTGVA], the IC50 was determined as 14.7 ± 0.28 µM in series [1] and 6 ± 0.35 µM in series [2]. The “relative ACE inhibitory activity, renal (HK-2) vs intestinal (Caco-2) level” value in series [2] (comparison of IC50 values in HK-2 and Caco-2 cells) was “twofold more active at the renal level than at the intestinal level”. The metabolised at 4 h, 100 μM in series [3] was found to be 27.7 ± 0.3%. In addition, in series [4], the “absorption by differentiated Caco-2 cells” value is recorded as “better absorbed than LPYP”. With FFL, the IC50 in the series with ACE (setting [6]) is 37 µM.

The IC50 is the concentration that gives 50% inhibition.

The record behind these values is publication PMC7997397, ““Bottom-Up” Strategy for the Identification of Novel Soybean Peptides with Angiotensin-Converting Enzyme Inhibitory Activity” (Journal of Agricultural and Food Chemistry, 2020).
